From ChEMBL document CHEMBL5365466, “Discovery of Triazolyl Derivatives of Cucurbitacin B Targeting IGF2BP1 against Non-Small Cell Lung Cancer” (J Med Chem, 2023)
Activity calls are given as the source filed them. No cut-off for these calls is given here.

Key:
[1] = Selectivity index, ratio of IC50 for antiproliferative activity against human L02 cells to IC50 for antiproliferative activity against human SK-OV-3 cells
A549 [2] = assay: Antitumor activity against human A549 cells xenografted in BALB/c mouse assessed as reduction in Ki67 expression in tumor at 0.5 mg/kg,ip administrated for 21 days by immunohistochemical analysis; assay type: functional, organism-based; settings: time 21.0 day
[3] = molecular target: T1, Insulin-like growth factor 2 mRNA-binding protein 1 (Homo sapiens, UniProt Q9NZI8); assay: Binding affinity to IGF2BP1 in human A549 cells assessed as protein stabilization at 1 uM at 49 degreeC incubated for 2 hrs by CETSA; assay type: cell-based
A549 [4] = assay: Induction of cell cycle arrest in human A549 cells assessed as accumulation of cells at G1 phase at 0.1 uM incubated for 24 hrs by PI staining based flow cytometric analysis (reference value: 65.6 %); assay type: functional
A549 [5] = assay: Induction of cell cycle arrest in human A549 cells assessed as accumulation of cells at G2 phase at 0.2 uM incubated for 24 hrs by PI staining based flow cytometric analysis (reference value: 9.26 %); assay type: functional
[6] = Selectivity index, ratio of IC50 for antiproliferative activity against human L02 cells to IC50 for antiproliferative activity against human HeLa cells; assay type: toxicity, cell-based; settings: L02 cells versus HeLa cells, read-out: Ratio IC50
A549 [7] = assay: Antitumor activity against human A549 cells xenografted in BALB/c mouse assessed as decrease in tumor volume at 0.5 mg/kg,ip administrated for 21 days; assay type: functional, organism-based; settings: time 21.0 day
A549 [8] = assay: Induction of apoptosis in human A549 cells assessed as downregulation of CDK4 expression incubated for 48 hrs by Western blotting analysis; assay type: functional, cell-based
PANC-1 = assay: Antiproliferative activity against human PANC-1 cells assessed as cell growth inhibition incubated for 72 hrs by SRB assay; assay type: functional, cell-based; settings: PANC-1, 72 h
[9] = molecular target: T1, Insulin-like growth factor 2 mRNA-binding protein 1; assay: Binding affinity to IGF2BP1 in human A549 cells assessed as protein stabilization at 1 uM at 46 degreeC incubated for 2 hrs by CETSA; assay type: cell-based
[10] = Selectivity index, ratio of IC50 for antiproliferative activity against human L02 cells to IC50 for antiproliferative activity against human MDA-MB-231 cells; assay type: toxicity, cell-based; settings: L02 cells versus MDA-MB-231 cells, read-out: Ratio IC50
MCF7 = assay: Antiproliferative activity against human MCF7 cells assessed as cell growth inhibition incubated for 72 hrs by SRB assay; assay type: functional, cell-based; settings: MCF7, 72 h
A549 [11] = assay: Induction of apoptosis in human A549 cells assessed as downregulation of Cyclin D1 expression incubated for 48 hrs by Western blotting analysis; assay type: functional, cell-based
MDA-MB-231 = assay: Antiproliferative activity against human MDA-MB-231 cells assessed as cell growth inhibition incubated for 72 hrs by SRB assay; assay type: functional, cell-based; settings: MDA-MB-231, 72 h
A549 [12] = assay: Antiproliferative activity against wild type human A549 cells assessed as cell growth inhibition incubated for 72 hrs by SRB assay; assay type: functional, cell-based; settings: A549, 72 h
A549 [13] = assay: Induction of apoptosis in human A549 cells at 0.5 uM incubated for 48 hrs by Annexin V-FITC/PI staining based flow cytometric analysis; assay type: functional
[14] = Acute toxicity in C57BL/6J mouse assessed as change in body weight at 0.75 mg/kg,ip measured after 14 days; assay type: organism-based; settings: in vivo, 336 h, time 14 day
[15] = Acute toxicity in BALB/c mouse xenografted with human A549 cells assessed as change in body weight at 0.5 mg/kg,ip administrated for 21 days; assay type: organism-based; settings: in vivo, 504 h, time 21 day
CFPAC-1 = assay: Antiproliferative activity against human CFPAC-1 cells assessed as cell growth inhibition incubated for 72 hrs by SRB assay; assay type: functional, cell-based; settings: CFPAC-1, 72 h
[16] = Selectivity index, ratio of IC50 for antiproliferative activity against human L02 cells to IC50 for antiproliferative activity against human HCT-116 cells; assay type: toxicity, cell-based; settings: L02 cells versus HCT-116 cells, read-out: Ratio IC50
A549 [17] = assay: Induction of autophagy in human A549 cells assessed as upregulation of p62 protein expression at 0.1 to 0.5 uM incubated for 48 hrs by Western blotting analysis; assay type: functional, cell-based; settings: dose 0.1-0.5 µM
A549 [18] = assay: Antitumor activity against human A549 cells xenografted in BALB/c mouse assessed as increase in nuclear pyknosis at 0.5 mg/kg,ip administrated for 21 days by hematoxylin and eosin staining based microscopic analysis; assay type: functional, organism-based; settings: time 21.0 day
A549 [19] = assay: Induction of cell cycle arrest in human A549 cells assessed as accumulation of cells at S phase at 0.1 uM incubated for 24 hrs by PI staining based flow cytometric analysis (reference value: 23 %); assay type: functional
A549 [20] = assay: Induction of cell cycle arrest in human A549 cells assessed as accumulation of cells at G2 phase at 0.5 uM incubated for 24 hrs by PI staining based flow cytometric analysis (reference value: 9.26 %); assay type: functional
A549 [21] = assay: Induction of autophagy in human A549 cells assessed as upregulation of Beclin-1 expression at 0.1 to 0.5 uM incubated for 48 hrs by Western blotting analysis; assay type: functional, cell-based; settings: dose 0.1-0.5 µM
[22] = Acute toxicity in C57BL/6J mouse assessed as death at 0.75 mg/kg,ip measured after 14 days; assay type: organism-based; settings: in vivo, 336 h, time 14 day
[23] = molecular target: T1, Insulin-like growth factor 2 mRNA-binding protein 1; assay: Binding affinity to His-tagged recombinant IGF2BP1 (unknown origin) assessed as dissociation constant by surface plasmon resonance assay
[24] = Selectivity index, ratio of IC50 for antiproliferative activity against human L02 cells to IC50 for antiproliferative activity against human MCF7 cells; assay type: toxicity, cell-based; settings: L02 cells versus MCF7 cells, read-out: Ratio IC50
HCT-116 = assay: Antiproliferative activity against human HCT-116 cells assessed as cell growth inhibition at 0.1 uM incubated for 72 hrs by SRB assay; assay type: functional
A549 [25] = assay: Induction of autophagy in human A549 cells assessed as upregulation of LC3II/LC3I ratio at 0.1 to 0.5 uM incubated for 48 hrs by Western blotting analysis; assay type: functional, cell-based; settings: dose 0.1-0.5 µM
A549 [26] = assay: Induction of apoptosis in human A549 cells assessed as downregulation of BCL-2 expression incubated for 48 hrs by Western blotting analysis; assay type: functional, cell-based
[27] = Selectivity index, ratio of IC50 for antiproliferative activity against human L02 cells to IC50 for antiproliferative activity against human A549 cells; assay type: toxicity, cell-based; settings: L02 cells versus A549 cells, read-out: Ratio IC50
[28] = Selectivity index, ratio of IC50 for antiproliferative activity against human L02 cells to IC50 for antiproliferative activity against human HepG2 cells; assay type: toxicity, cell-based; settings: L02 cells versus HepG2 cells, read-out: Ratio IC50
A549 [29] = assay: Induction of apoptosis in human A549 cells assessed as increase in PARP cleavage incubated for 48 hrs by Western blotting analysis; assay type: functional, cell-based
A549 [30] = assay: Induction of cell cycle arrest in human A549 cells assessed as accumulation of cells at G2 phase at 0.1 uM incubated for 24 hrs by PI staining based flow cytometric analysis (reference value: 9.26 %); assay type: functional
A549 [31] = assay: Antitumor activity against human A549 cells xenografted in BALB/c mouse assessed as decrease in tumor weight at 0.5 mg/kg,ip administrated for 21 days; assay type: functional, organism-based; settings: time 21.0 day
[32] = Selectivity index, ratio of IC50 for antiproliferative activity against human L02 cells to IC50 for antiproliferative activity against human CFPAC-1 cells

T1 sequence (Q9NZI8 whole entry): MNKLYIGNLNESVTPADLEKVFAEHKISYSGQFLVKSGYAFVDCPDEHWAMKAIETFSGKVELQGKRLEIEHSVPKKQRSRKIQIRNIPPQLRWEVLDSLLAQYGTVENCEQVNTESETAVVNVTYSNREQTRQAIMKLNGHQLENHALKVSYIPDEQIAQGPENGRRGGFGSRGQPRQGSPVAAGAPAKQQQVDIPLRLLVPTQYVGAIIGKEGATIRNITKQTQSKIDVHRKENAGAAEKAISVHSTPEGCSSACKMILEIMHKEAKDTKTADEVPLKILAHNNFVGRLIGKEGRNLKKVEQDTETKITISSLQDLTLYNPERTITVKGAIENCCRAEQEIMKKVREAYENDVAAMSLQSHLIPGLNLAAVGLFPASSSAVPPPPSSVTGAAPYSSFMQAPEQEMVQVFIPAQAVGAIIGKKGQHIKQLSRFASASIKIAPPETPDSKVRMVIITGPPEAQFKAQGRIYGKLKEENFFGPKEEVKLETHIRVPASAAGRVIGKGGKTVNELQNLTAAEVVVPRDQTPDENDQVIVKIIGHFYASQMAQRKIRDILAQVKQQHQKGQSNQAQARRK

CC(=O)OC(C)(C)/C=C/C(=O)[C@](C)(O)[C@H]1[C@H](O)C[C@@]2(C)[C@@H]3CC=C4[C@@H](C[C@H](OC(=O)Cn5ncn(-c6ccc(F)cc6)c5=O)C(=O)C4(C)C)[C@]3(C)C(=O)C[C@]12C
Ratio IC50 [1]: 1.85
Activity (A549 [2]): Active
Activity [3]: Active
Activity (A549 [4]): 57.7%
Activity (A549 [5]): 16.4%
selectivity ratio [6]: 6.67
Activity (A549 [7]): Active
Activity (A549 [8]): Dose-Dependent Effect
IC50 (PANC-1): 88 nM
Activity [9]: Active
selectivity ratio [10]: 2.04
IC50 (MCF7): 56 nM
Activity (A549 [11]): Dose-Dependent Effect
IC50 (MDA-MB-231): 49 nM
IC50 (A549 [12]): 5 nM
Activity (A549 [13]): 36.7%
Activity [14]: Toxic
Activity [15]: Non-Toxic
IC50 (CFPAC-1): 37 nM
selectivity ratio [16]: 2.94
Activity (A549 [17]): Dose-Dependent Effect
Activity (A549 [18]): Active
Activity (A549 [19]): 31.1%
Activity (A549 [20]): 37.3%
Activity (A549 [21]): inactive
Activity [22]: Non-Toxic
Kd [23]: 2.88 nM
selectivity ratio [24]: 1.79
inhibition at 0.1 µM (HCT-116): 73.1%
Activity (A549 [25]): Active
Activity (A549 [26]): Dose-Dependent Effect
selectivity ratio [27]: 11.1
selectivity ratio [28]: 1.25
Activity (A549 [29]): Dose-Dependent Effect
Activity (A549 [30]): 10.5%
Activity (A549 [31]): Active
Ratio IC50 [32]: 2.7
